Measurements reported in the NIST ThermoML archive (doi:10.1016/j.jct.2013.06.007).
“And” between values parts separate entries of the source, which are not always exact repeats. Equal values may be shown once. ± gives the expanded uncertainty stated by the source.

Experiments:
[1] = Molar enthalpy of transition or fusion; conditions: Crystal; DSC
[2] = Crystal; DTA

Molar enthalpy of transition or fusion [1]: 6.75 kcal/mol and 6.39 kcal/mol
Normal melting temperature [2]: 53.47 ± 0.48 °C and 52.70 ± 0.87 °C
Structure (SMILES): CCOC(=O)NCCOc1ccc(Oc2ccccc2)cc1 [fenoxycarb]
